Results from US7985774B2, “Use of 3,5-seco-4-nor-cholestane derivatives for obtaining a cytoprotective drug” (Trophos, priority 2006, dated 2011).

Tests used:
[1] = test system: rabbit ventricular cardiomyocytes; assay: Annexin V marking of phosphatidylserine (apoptosis) after doxorubicin; assay type: cell-based; details: 3 hrs after doxorubicin, control 100%
Experimental: Isolated ventricular cells are obtained from hearts of male New Zealand rabbits as described in A. d'Anglemont de Tassigny et al., Fund. Clin. Pharmacol, 18: 531-38, 2004. Briefly, the rabbits (2.0-2.5 kg) are anaesthetized with a pentobarbital solution (50 mg/kg) and they then receive heparin (200 IU/kg). The hearts are excised and immediately perfused, for 10-15 minutes by means of a Langendorff apparatus without recirculation with an oxygenated tyrode (calcium-free) isotonic solution (95%, 2-5% CO2) (in mM: NaCl 135, KCl 5.4, Na2PO4 0.33, MgCl2 1.0, HEPES 10, pH adjusted to 7.4 with 1N NaOH at 37° C., 280-300 mOsmol/kgH2O). Next, all the hearts are perfused for 3 minutes in the “recirculation” mode with the same calcium-free Tyrode solution (coronary flow rate, 10-15 mL/min) added with 1 mg/mL of type II collagenase and 0.28 mg/mL of XIV type protease. Finally, all the hearts are perfused in a mode without any recirculation with the same solution of Tyrode supplemented with 0.3 mM of CaCl2 for 10 min. The left ventricle is removed and cut into small pieces; cell dissociation is achieved by mild mechanical stirring. Extracellular calcium is added by increments every 15 minutes, in order to reach a physiological concentration of 1.0 mM. […]
Annexin V marking of phosphatidylserine was used as a quantitative method for measuring apoptosis by using the MiniMacs cell isolation kit (Miltenyi Biotec, Bergisch, Gladbach, Germany). […] The column is removed from the magnetic field, the cells exposing phosphatidylserine, magnetically retained, are eluted as a positive fraction and counted with a Mallassez cell counter. […]
Apoptosis is induced in isolated cardiomyocytes by 3-8 hour exposure to 1 μM of doxorubicin added into an isotonic solution containing (in mM) NaCl 110, KCl 5.4, Na2PO4 0.33, NaHCO3 25, glucose 5, MgCl2 0.8, CaCl2 1, pH adjusted to 7.4. […] The contractility of cardiomyocytes was measured every hour during the 8 hrs of exposure to doxorubicin. […]

CD1 mice = assay: Acute hepatotoxicity: lethal intoxication by the Jo2 antibody (survival); assay type: in vivo; details: for Survival rate: 24 hrs
Experimental: Male adult CD1 mice from the breeder “Elevage Janvier”, (Le Genest-Saint-Isle, France) were used. The animals were identified individually and had free access to water and food.
A stock solution of monoclonal hamster anti-mouse CD95 (Fas) antibody, called Jo2, from Pharmingen (BD Biosciences, ref. 554254 batch 32699) is prepared at a concentration of 1 mg/mL in water. The dilutions used are made in 0.9% sodium chloride in water.
The desired amount of 3,5-seco-4-nor-cholestan-5-one oxime-3-ol is weighed and milled into a fine powder, and then mixed with Cremophore EL (Sigma C5135) and absolute ethanol (Carlo Erba RPE 41571) (5% and 10% of the final volume, respectively). After complete dissolution, 0.9% sodium chloride in water is added extemporaneously (85% of the final volume).
In this experiment, the effect of 3,5-seco-4-nor-cholestan-5-one oxime-3-ol on the survival of animals after administering a lethal dose of the Jo2 antibody is evaluated.
The Jo2 antibody is administered by intraperitoneal injection at a dose of 200 ou 250 μg/kg in a volume of 5 mL/kg of body weight.
3,5-seco-4-nor-cholestan-5-one oxime-3-ol is tested at 10 and 30 mg/kg, as a pretreatment, 1 hr before administering Jo2 or as a post-treatment, 1 hr after administering Jo2.
A control is obtained with animals receiving pretreatment by intraperitoneal administration, 1 hr before or 1 hr after administering the antibody, of an identical volume of solution having been used for preparing the compound to be tested, without the compound.

Compound: CC(C)CCC[C@@H](C)[C@H]1CC[C@H]2[C@@H]3CC/C(=N\O)[C@](C)(CCCO)[C@H]3CC[C@]12C [3,5-seco-4-nor-cholestan-5-one oxime-3-ol]
- Apoptosis as % of change in annexin V marking ([1]; doxorubicin 1 μM + compound 0.1 μM): 116.3%
- Apoptosis as % of change in annexin V marking ([1]; doxorubicin 1 μM + compound 0.3 μM): 137.3%
- Survival rate (CD1 mice; Experience 5: Jo2 200 μg/kg, 10 mg/kg post-treatment, control 30): 60%
- Mortality (24 hrs)/total number of animals (CD1 mice; Experience 5: Jo2 200 μg/kg, 10 mg/kg post-treatment, control 14/20): 8/20
- Survival rate (CD1 mice; Experience 6: Jo2 200 μg/kg, 30 mg/kg post-treatment, control 20): 60%
- Mortality (24 hrs)/total number of animals (CD1 mice; Experience 6: Jo2 200 μg/kg, 30 mg/kg post-treatment, control 16/20): 8/20
- Survival rate (CD1 mice; Experiment 1: Jo2 250 μg/kg, 10 mg/kg pretreatment, control 25): 65%
- Mortality (24 hrs)/total number of animals (CD1 mice; Experiment 1: Jo2 250 μg/kg, 10 mg/kg pretreatment, control 15/20): 7/20
- Survival rate (CD1 mice; Experiment 2: Jo2 250 μg/kg, 30 mg/kg pretreatment, control 10): 90%
- Mortality (24 hrs)/total number of animals (CD1 mice; Experiment 2: Jo2 250 μg/kg, 30 mg/kg pretreatment, control 18/20): 2/20
- Survival rate (CD1 mice; Experiment 3: Jo2 250 μg/kg, 10 mg/kg post-treatment, control 10): 15%
- Mortality (24 hrs)/total number of animals (CD1 mice; Experiment 3: Jo2 250 μg/kg, 10 mg/kg post-treatment, control 18/20): 17/20
- Survival rate (CD1 mice; Experiment 4: Jo2 250 μg/kg, 30 mg/kg post-treatment, control 5): 35%
- Mortality (24 hrs)/total number of animals (CD1 mice; Experiment 4: Jo2 250 μg/kg, 30 mg/kg post-treatment, control 19/20): 13/20
